In US11730788B2, “Use of peptides as therapeutic agent for autoimmune diseases and bone diseases” (KINE SCIENCES CO., LTD., priority 2017, dated 2023):

Tests used:
[1] = test system: collagen-induced arthritis (CIA) mouse model; assay: Rheumatoid arthritis treatment effect in collagen-induced arthritis (CIA) mouse model; assay type: in vivo, DBA/1J mouse; settings: intraperitoneal, 3 times a week after second immunization; versus vehicle PBS; similar efficacy to positive control MTX
Experimental: In order to confirm a rheumatoid arthritis improvement effect of the peptides prepared in Example 1, a rheumatoid arthritis mouse model was prepared with reference to a known literature (Nat Protoc. 2007; 2 (5): 1269-75.).
Specifically, a CIA mouse model is a mouse model most commonly used in a rheumatoid arthritis animal test as an autoimmune disease arthritis model having characteristics similar to human rheumatoid arthritis. In the CIA mouse model, bovine type II collagen (Chondrex, USA) was mixed and emulsified with a Freund's complete adjuvant (Chondrex, USA) at 1:1, and then first immunization was performed by injecting 50 μl of the emulsified collagen solution intradermally into a 6-week-old DBA/1J mouse tail. On 2 weeks after the first immunization, bovine type II collagen was mixed and emulsified with a Freund's incomplete adjuvant (Chondrex, USA) at 1:1, and then second immunization (boosting) was performed by injecting 50 μl of the emulsified collagen solution induced) intradermally into the mouse tail. After the second immunization, each peptide was intraperitoneally administered 3 times a week from the following day to observe a therapeutic effect of the peptides for rheumatoid arthritis.
In order to examine the progression of rheumatoid arthritis according to the peptide treatment of the present invention, the severity of rheumatoid arthritis over time was evaluated and measured by a rheumatoid arthritis progress index.
At this time, the arthritis progress index was evaluated as Points 0 to 4 per leg in accordance with the arthritis progress evaluation criteria by Rossoliniec, etc. in Table 2 below and shown to total Points 0 to 16 (sum of four legs). Thereafter, an average value of the results evaluated by the two observers was calculated to quantify the severity of arthritis.

[2] = test system: Th17 cell differentiation of naive CD4+ T cells; assay: Th17 cell differentiation inhibitory effect (CD4+IL-17+ T cell population); assay type: cell-based, mouse; settings: IL-6 20 ng/ml + TGF-beta 5 ng/ml + TCR activation; peptide 10 ng/ml to 1000 ng/ml, 3 days; non-induced 1.2%, induced 3.14%
Experimental: In order to confirm the efficacy of the synthetic peptides prepared in Example 1 to inhibit Th17 cell differentiation, naive CD4^+ T cells extracted from lymph nodes of the mouse were treated with IL-6 20 ng/ml and TGF-beta 5 ng/ml together with TCR activation to induce differentiation into Th17 cells.
At the same time, three peptides Pep1, Pep6, and Pep8 disclosed in Table 2 of Test Example 1 were treated at a concentration of 10 ng/ml to 1000 ng/ml, respectively. Then, after incubation for 3 days, CD4+IL-17+ T cell population was analyzed.

IL-6 = assay: Inflammatory cytokine IL-6 reduction effect (IL-6 ELISA, THP-1 derived M1 macrophages); assay type: cell-based; settings: LPS 10 ng/ml + IFN-gamma 20 ng/ml, peptide 100 ng/ml, 24 hours, similar to positive control MTX
Experimental: In order to confirm the efficacy of the synthetic peptides prepared in Example 1 to inhibit inflammatory cytokine IL-6 secretion, a THP-1 monocytic cell line was treated with PMA 50 ng/ml for 48 hours to be differentiated into M1 macrophages. After treatment with LPS 10 ng/ml and IFN-gamma 20 ng/ml to the differentiated M1 macrophages, a positive control group MTX or the synthetic peptides of the present invention were co-treated at a concentration of 100 ng/ml, respectively. Thereafter, after incubation for 24 hours, IL-6 ELISA was performed using a cultured sup.

Row | Substance | arthritis improvement (arthritis score, total Points 0 to 16) [1] | ratio of Th17 cells (CD4+IL-17+ T cell population) [2] | IL-6 secretion (ELISA of culture sup) (IL-6)
1 | KEGKEGKEG [Pep6] | efficacy of arthritis improvement was shown | reduced similarly to the group that did not induce differentiation | –
2 | KDAKDA [Pep4] | efficacy of arthritis improvement was shown | – | –
3 | KDGKDG [Pep1] | efficacy of arthritis improvement was shown | reduced similarly to the group that did not induce differentiation | –
4 | KEAKEA [Pep3] | – | – | significantly reduced
5 | KEAKEAKEA [Pep7] | efficacy of arthritis improvement was shown | – | significantly reduced
6 | KDGKDGKDG [Pep5] | – | – | significantly reduced
7 | KEGKEG [Pep2] | – | – | significantly reduced
8 | KDAKDAKDA [Pep8] | efficacy of arthritis improvement was shown | reduced similarly to the group that did not induce differentiation | significantly reduced
